Experimental data as given in PMC12396559 (Virus Research, 2025).

Experiments:
MPXV^Zr-599 (Clade I) = assay: microbe, parasite or virus in culture; type: cell-based; details: Monkeypox virus, Vero C1008, 120 h, read-out: EC50 against MPXV^Zr-599
MPXV^Liberia (Clade IIa) = assay: microbe, parasite or virus in culture; type: cell-based; details: Monkeypox virus, Vero C1008, 120 h, read-out: EC50 against MPXV^Liberia
MPXV^SPL2A7 (Clade IIb) = assay: microbe, parasite or virus in culture; type: cell-based; details: Monkeypox virus, Vero C1008, 120 h, read-out: EC50 against MPXV^SPL2A7
Huh7 cells = details: for concentration at which the agent showed cytotoxicity, reducing the number of cells: human
HeLa cells = details: for concentration at which the agent showed cytotoxicity, reducing the number of cells: human
VeroE6 cells [1] = test system: VeroE6 cells
VeroE6 cells [2] = test system: VeroE6 cells; remark: listed apart in the source
in vitro [3] = details: human
in vitro [4] = details: human; remark: listed apart in the source
clade II mpox = details: human, in vivo; cited from earlier work
clade I mpox = details: human, in vivo; cited from earlier work
in vitro [5] = details: African green monkey

**Q.** What does the source list for `CCCCCCCCCCCCCCCCOCCCOP(=O)(O)CO[C@H](CO)Cn1ccc(N)nc1=O` [Brincidofovir, brincidofovir]?
**A.** EC50 (MPXV^Zr-599 (Clade I)): 2130 ± 950 nM; EC50 (MPXV^Liberia (Clade IIa)): 2010 ± 850 nM; EC50 (MPXV^SPL2A7 (Clade IIb)): 2030 ± 320 nM; concentration at which the agent showed cytotoxicity, reducing the number of cells (Huh7 cells): 10 to 100 µM; concentration at which the agent showed cytotoxicity, reducing the number of cells (HeLa cells): 10 to 100 µM; amount of F-actin (images) (VeroE6 cells [1]): markedly reduced; protein production (F-actin quantification), in words (VeroE6 cells [1]): virtually totally blocked; cell number on day 5 subtracted with cell number on Day 0 (VeroE6 cells [2]): below zero

**Q.** For `Nc1ccn(C[C@@H](CO)OCP(=O)(O)O)c(=O)n1` [Cidofovir, cidofovir], which EC50 (MPXV^Zr-599 (Clade I)) is on record?
**A.** 17300 ± 5030 nM

**Q.** What about the EC50 (MPXV^Liberia (Clade IIa)) of the same molecule?
**A.** 15200 ± 3020 nM

**Q.** And the EC50 (MPXV^SPL2A7 (Clade IIb))?
**A.** 12200 ± 1190 nM

**Q.** What about the “concentration at which the agent showed cytotoxicity, reducing the number of cells” value (Huh7 cells) of the same molecule?
**A.** 100 µM

**Q.** And the “concentration at which the agent showed cytotoxicity, reducing the number of cells” value (HeLa cells)?
**A.** 100 µM

**Q.** And the “protein production (F-actin quantification), in words” value (VeroE6 cells [1])?
**A.** virtually totally blocked

**Q.** And the “cell number on day 5 subtracted with cell number on Day 0” value (VeroE6 cells [2])?
**A.** below zero

**Q.** What about the CC50 (in vitro [3]) of the same molecule?
**A.** > 100000 nM

**Q.** And the CC50 (in vitro [4])?
**A.** > 100000 nM

**Q.** With `Nc1ccn([C@@H]2O[C@H](CO)[C@@H](O)C2(F)F)c(=O)n1` [Gemcitabine, gemcitabine] as the molecule, how does the EC50 (MPXV^Zr-599 (Clade I)) read?
**A.** 20 ± 20 nM

**Q.** What about the EC50 (MPXV^Liberia (Clade IIa)) of the same molecule?
**A.** 10 ± 10 nM

**Q.** What about the EC50 (MPXV^SPL2A7 (Clade IIb)) of the same molecule?
**A.** 20 ± 20 nM

**Q.** What about the “amount of F-actin (images)” value (VeroE6 cells [1]) of the same molecule?
**A.** greatly reduced

**Q.** And the “protein production (F-actin quantification), in words” value (VeroE6 cells [1])?
**A.** totally blocked

**Q.** And the “number of cells (DAPI)” value (VeroE6 cells [2])?
**A.** significant reduction

**Q.** With `O=C(NN1C(=O)[C@@H]2[C@@H]3C=C[C@@H]([C@H]4C[C@@H]34)[C@@H]2C1=O)c1ccc(C(F)(F)F)cc1` [Tecovirimat, tecovirimat] as the molecule, how does the EC50 (MPXV^Zr-599 (Clade I)) read?
**A.** 5 ± 1 nM

**Q.** What about the EC50 (MPXV^Liberia (Clade IIa)) of the same molecule?
**A.** 4 ± 2 nM

**Q.** And the EC50 (MPXV^SPL2A7 (Clade IIb))?
**A.** 1 ± 2 nM

**Q.** What about the “cytostaticity and/or cytotoxicity (in words)” value (Huh7 cells) of the same molecule?
**A.** without cytostaticity and/or cytotoxicity

**Q.** What about the “cytostaticity and/or cytotoxicity (in words)” value (HeLa cells) of the same molecule?
**A.** without cytostaticity and/or cytotoxicity

**Q.** What about the “concentration at which production of virally-encoded proteins was blocked (and above)” value (MPXV^SPL2A7) of the same molecule?
**A.** ≥ 0.01 µM

**Q.** What about the “number of the cells (nuclei stained with DAPI)” value (MPXV^SPL2A7) of the same molecule?
**A.** no significant reduction

**Q.** What about the “suppression of protein production (F-actin quantification)” value (VeroE6 cells [1]) of the same molecule?
**A.** about 50%

**Q.** And the clinical efficacy (clade II mpox)?
**A.** no significant efficacy

**Q.** And the “duration of mpox lesions” value (clade I mpox)?
**A.** failed to shorten the duration of mpox lesions

**Q.** What about the CC50 (in vitro [5]) of the same molecule?
**A.** > 100000 nM

**Q.** What about the CC50 (in vitro [3]) of the same molecule?
**A.** > 100000 nM

**Q.** And the CC50 (in vitro [4])?
**A.** > 100000 nM

**Q.** For `O=c1[nH]c(=O)n([C@H]2C[C@H](O)[C@@H](CO)O2)cc1C(F)(F)F` [Trifluridine, trifluridine], which EC50 (MPXV^Zr-599 (Clade I)) is on record?
**A.** 3710 ± 1450 nM

**Q.** What about the EC50 (MPXV^Liberia (Clade IIa)) of the same molecule?
**A.** 3480 ± 1820 nM

**Q.** What about the EC50 (MPXV^SPL2A7 (Clade IIb)) of the same molecule?
**A.** 6170 ± 1260 nM
